From US20240173307A1, “MODULATORS OF THE INTEGRATED STRESS PATHWAY” (Calico Life Sciences LLC, priority 2017, published 2024)

Tested on: HEK293T cells carrying the ATF4 luciferase reporter
Assay: ATF4-Luc assay (in vitro model of vanishing white matter disease)
Assay type: cell-based
Settings: Homo sapiens, HEK-293T, 1 μg/mL tunicamycin, 7 hours
Procedure: In order to test exemplary compounds of the invention in a cellular context, a stable VWMD cell line was first constructed. The ATF4 reporter was prepared by fusing the human full-length ATF4 5′-UTR (NCBI Accession No. BCO22088.2) in front of the firefly luciferase (FLuc) coding sequence lacking the initiator methionine as described in Sidrauski et al (eLife 2013). The construct was used to produce recombinant retroviruses using standard methods and the resulting viral supernatant was used to transduce HEK293T cells, which were then subsequently selected with puromycin to generate a stable cell line.
HEK293T cells carrying the ATF4 luciferase reporter were plated on polylysine coated 384-well plates (Greiner Bio-one) at 30,000 cells per well. Cells were treated the next day with 1 μg/mL tunicamycin and 200 nM of a compound of Formula (I) for 7 hours. Luminescence was measured using One Glo (Promega) as specified by the manufacturer. Cells were maintained in DMEM with L-glutamine supplemented with 10% heat-inactivated FBS (Gibco) and Antibiotic-Antimycotic solution (Gibco).
Table 2 below summarizes the EC50 data obtained using the ATF4-Luc assay for exemplary compounds of the invention.

Compound	EC50 [µM]
O=C(COc1ccc(Cl)c(F)c1)NC12CC(C(=O)Nc3ccc(Cl)cc3)(C1)C2 [Compound 283, 3-[2-(4-chloro-3-fluorophenoxy)acetamido]-N-(4-chlorophenyl)bicyclo[1.1.1]pentane-1-carboxamide]	< 0.25
O=C(COc1ccc(Cl)c(F)c1)NC12CC(C(=O)Nc3cnc(C(F)F)cn3)(C1)C2 [Compound 284, 3-[2-(4-chloro-3-fluorophenoxy)acetamido]-N-[5-(difluoromethyl)pyrazin-2-yl]bicyclo[1.1.1]pentane-1-carboxamide]	< 0.25
O=C(COc1ccc(Cl)c(F)c1)NC12CC(C(=O)Nc3ccccc3)(C1)C2 [Compound 285, 3-[2-(4-chloro-3-fluorophenoxy)acetamido]-N-phenylbicyclo[1.1.1]pentane-1-carboxamide]	< 0.25
O=C(COc1ccc(Cl)c(F)c1)NC12CCC(C(=O)Nc3ccc(Cl)cc3)(C1)C2 [Compound 286, 4-[2-(4-chloro-3-fluorophenoxy)acetamido]-N-(4-chlorophenyl)bicyclo[2.1.1]hexane-1-carboxamide]	> 2
O=C(COc1ccc(Cl)c(F)c1)NC12CC(C(=O)Nc3ccc(OC(F)(F)F)cn3)(C1)C2 [Compound 287, 3-[2-(4-chloro-3-fluorophenoxy)acetamido]-N-[5-(trifluoromethoxy)pyridin-2-yl]bicyclo[1.1.1]pentane-1-carboxamide]	< 0.25
O=C(COc1ccc(Cl)c(F)c1)NC12CCC(C(=O)Nc3ccc(OC(F)(F)F)cn3)(C1)C2 [Compound 288, 4-[2-(4-chloro-3-fluorophenoxy)acetamido]-N-[5-(trifluoromethoxy)pyridin-2-yl]bicyclo[2.1.1]hexane-1-carboxamide]	< 0.25
O=C(COc1ccc(Cl)c(Cl)c1)NC12CC(C(=O)Nc3ccccn3)(C1)C2 [Compound 289, 3-[2-(3,4-dichlorophenoxy)acetamido]-N-(pyridin-2-yl)bicyclo[1.1.1]pentane-1-carboxamide]	< 0.25
O=C(COc1ccc(Cl)c(F)c1)NC12CC(C(=O)Nc3ccccn3)(C1)C2 [Compound 290, 3-[2-(4-chloro-3-fluorophenoxy)acetamido]-N-(pyridin-2-yl)bicyclo[1.1.1]pentane-1-carboxamide]	< 0.25
O=C(COc1ccc(Cl)c(Cl)c1)NC12CC(C(=O)Nc3ccc(OC(F)(F)F)cn3)(C1)C2 [Compound 291, 3-[2-(3,4-dichlorophenoxy)acetamido]-N-[5-(trifluoromethoxy)pyridin-2-yl]bicyclo[1.1.1]pentane-1-carboxamide]	< 0.25
O=C(COc1ccc(Cl)c(Cl)c1)NC12CCC(C(=O)Nc3ccc(OC(F)(F)F)cn3)(C1)C2 [Compound 292, 4-[2-(3,4-dichlorophenoxy)acetamido]-N-[5-(trifluoromethoxy)pyridin-2-yl]bicyclo[2.1.1]hexane-1-carboxamide]	< 0.25
O=C(COc1ccc2c(c1)OC(F)(F)O2)NC12CCC(C(=O)Nc3ccc(OC(F)(F)F)cn3)(C1)C2 [Compound 293, 4-{2-[(2,2-difluoro-2H-1,3-benzodioxol-5-yl)oxy]acetamido}-N-[5-(trifluoromethoxy)pyridin-2-yl]bicyclo[2.1.1]hexane-1-carboxamide]	0.25 to 0.5
O=C(COc1ccc2c(c1)OC(F)(F)O2)NC12CC(C(=O)Nc3ccc(OC(F)(F)F)cn3)(C1)C2 [Compound 294, 3-{2-[(2,2-difluoro-2H-1,3-benzodioxol-5-yl)oxy]acetamido}-N-[5-(trifluoromethoxy)pyridin-2-yl]bicyclo[1.1.1]pentane-1-carboxamide]	< 0.25
O=C(COc1ccc(Cl)c(Cl)c1)NC12CC(C(=O)Nc3cccnc3)(C1)C2 [Compound 295, 3-[2-(3,4-dichlorophenoxy)acetamido]-N-(pyridin-3-yl)bicyclo[1.1.1]pentane-1-carboxamide]	< 0.25
O=C(COc1ccc(Cl)c(Cl)c1)NC12CC(C(=O)Nc3ccncc3)(C1)C2 [Compound 296, 3-[2-(3,4-dichlorophenoxy)acetamido]-N-(pyridin-4-yl)bicyclo[1.1.1]pentane-1-carboxamide]	< 0.25
O=C(COc1ccc(C(F)(F)F)nc1)NC12CC(C(=O)Nc3ccc(OC(F)(F)F)cn3)(C1)C2 [Compound 297, N-[5-(trifluoromethoxy)pyridin-2-yl]-3-(2-{[6-(trifluoromethyl)pyridin-3-yl]oxy}acetamido)bicyclo[1.1.1]pentane-1-carboxamide]	< 0.25
O=C(COc1ccc(Cl)c(F)c1)NC12CC(C(=O)Nc3ccc(C(F)F)cn3)(C1)C2 [Compound 298, 3-[2-(4-chloro-3-fluorophenoxy)acetamido]-N-[5-(difluoromethyl)pyridin-2-yl]bicyclo[1.1.1]pentane-1-carboxamide]	< 0.25
Cc1ccc(NC(=O)C23CC(NC(=O)COc4ccc(Cl)c(F)c4)(C2)C3)nc1 [Compound 299, 3-[2-(4-chloro-3-fluorophenoxy)acetamido]-N-(5-methylpyridin-2-yl)bicyclo[1.1.1]pentane-1-carboxamide]	< 0.25
O=C(COc1ccc(Cl)c(F)c1)NC12CC(C(=O)Nc3cccnc3)(C1)C2 [Compound 300, 3-[2-(4-chloro-3-fluorophenoxy)acetamido]-N-(pyridin-3-yl)bicyclo[1.1.1]pentane-1-carboxamide]	< 0.25
O=C(COc1ccc(Cl)c(F)c1)NC12CC(C(=O)Nc3ccncc3)(C1)C2 [Compound 301, 3-[2-(4-chloro-3-fluorophenoxy)acetamido]-N-(pyridin-4-yl)bicyclo[1.1.1]pentane-1-carboxamide]	< 0.25
COc1cnc(NC(=O)C23CC(NC(=O)COc4ccc(Cl)c(F)c4)(C2)C3)nc1 [Compound 302, 3-[2-(4-chloro-3-fluorophenoxy)acetamido]-N-(5-methoxypyrimidin-2-yl)bicyclo[1.1.1]pentane-1-carboxamide]	0.25 to 0.5
COc1ccc(NC(=O)C23CC(NC(=O)COc4ccc(Cl)c(F)c4)(C2)C3)nc1 [Compound 303, 3-[2-(4-chloro-3-fluorophenoxy)acetamido]-N-(5-methoxypyridin-2-yl)bicyclo[1.1.1]pentane-1-carboxamide]	0.25 to 0.5
Cc1cnc(NC(=O)C23CC(NC(=O)COc4ccc(Cl)c(F)c4)(C2)C3)cn1 [Compound 304, 3-[2-(4-chloro-3-fluorophenoxy)acetamido]-N-(5-methylpyrazin-2-yl)bicyclo[1.1.1]pentane-1-carboxamide]	< 0.25
N#Cc1ccc(NC(=O)C23CC(NC(=O)COc4ccc(Cl)c(F)c4)(C2)C3)nc1 [Compound 305, 3-[2-(4-chloro-3-fluorophenoxy)acetamido]-N-(5-cyanopyridin-2-yl)bicyclo[1.1.1]pentane-1-carboxamide]	< 0.25
O=C(COc1ccc(Cl)c(F)c1)NC12CC(C(=O)Nc3ccc(C4CC4)cn3)(C1)C2 [Compound 306, 3-[2-(4-chloro-3-fluorophenoxy)acetamido]-N-(5-cyclopropylpyridin-2-yl)bicyclo[1.1.1]pentane-1-carboxamide]	< 0.25
CCOc1cnc(NC(=O)C23CC(NC(=O)COc4ccc(Cl)c(F)c4)(C2)C3)cn1 [Compound 307, 3-[2-(4-chloro-3-fluorophenoxy)acetamido]-N-(5-ethoxypyrazin-2-yl)bicyclo[1.1.1]pentane-1-carboxamide]	0.25 to 0.5
